# Laboratory results: US20090176817A1, “Method of Treatment of Diarrhea-Predominant Irritable Bowel Syndrome in a Subject” (priority 2005, published 2009)
# How the values were obtained:
# [1] = assay type: in vitro ADME; conditions: human
# Method: Protein binding was also evaluated in an in vitro study in human, mouse, rat, and dog plasma using equilibrium dialysis (12-14K molecular weight cut-off membrane). […] This study also measured the binding of (^14C)-cilansetron to purified human serum albumin at cilansetron concentrations ranging from 30-3000 ng/mL and to purified human alpha-1 acid glycoprotein (AAG) at concentrations ranging from 30-10000 ng/mL.
# clinical [2] = conditions: human, in vivo
# Method: The single- and multiple-dose pharmacokinetics of cilansetron at oral doses of 4 mg and 8 mg were evaluated in a randomized, double-blind, placebo controlled, parallel group study in 32 male subjects (14 subjects received 4 mg cilansetron, 14 received 8 mg cilansetron, and 4 received placebo). Subjects received a single dose of cilansetron at their assigned dose on the first day of the study (Day 1), followed by a 7-day washout, after which they received cilansetron TID at their assigned dose for 6 days and a single dose on the morning of the seventh day (Day 14). Morning doses on all days were administered under fasted conditions. […] Renal excretion of cilansetron was negligible following single and multiple dosing at both doses, with less than 1% of the dose excreted unchanged in urine.
# clinical [3] = conditions: both, human, in vivo, 2 mg
smiles,measurement,setting,value
"Cc1nccn1C[C@H]1CCc2c(c3cccc4c3n2CCC4)C1=O [Cilansetron, (R)-(−)-4,5,6,8,9,10-hexahydro-10-[(2-methyl-1H-imidazol-1-yl)methyl]-11H-pyrido-[3,2,1-jk]-carbazol-11-one]",In vivo chiral inversion to KC9945,,no in vivo chiral inversion
same,Protein bound,[1],93-96%
same,CL/F,clinical [2]; 4 mg,3226 (51) mL/min
same,CL/F,clinical [2]; 8 mg,3559 (62) mL/min
same,Dose excreted unchanged in urine,clinical [2]; male,less than 1%
same,Intersubject % CV for AUC and Cmax,clinical [2]; male,36-82%
same,Intrasubject % CV on AUC,clinical [2]; male,33-55%
same,CLr,"clinical [2]; male, 4 mg",7.47 (143) mL/min
same,DN-AUC,"clinical [2]; male, 4 mg",6.08 (36) ng · h/mL
same,DN-Cmax,"clinical [2]; male, 4 mg",2.21 (37) ng/mL
same,Vd/F,"clinical [2]; male, 4 mg",406 L
same,AUC,"clinical [2]; male, 4 mg",24.3 ng·h/mL
same,Cmax,"clinical [2]; male, 4 mg",8.83 ng/mL
same,Tmax,"clinical [2]; male, 4 mg",1.38 h
same,half-life,"clinical [2]; male, 4 mg, T½",1.55 h
same,DN-AUC,"clinical [2]; male, 8 mg",6.55 (69) ng · h/mL
same,DN-Cmax,"clinical [2]; male, 8 mg",2.89 (61) ng/mL
same,Vd/F,"clinical [2]; male, 8 mg",483 L
same,AUC,"clinical [2]; male, 8 mg",52.4 ng·h/mL
same,CL renal,"clinical [2]; male, 8 mg, CLr",4.68 mL/min
same,Cmax,"clinical [2]; male, 8 mg",23.1 ng/mL
same,Tmax,"clinical [2]; male, 8 mg",1 h
same,half-life,"clinical [2]; male, 8 mg, T½",1.92 h
same,half-life,"clinical [2]; male, Mean half-life",1.6 to 1.9 h
same,Tmax,clinical [3]; Tmax,1 h
same,half-life,clinical [3]; T½,2.85 h
